Results taken from article PMC11768251, “Τhiazolidine-4-One Derivatives with Variable Modes of Inhibitory Action Against DPP4, a Drug Target with Multiple Activities and Established Role in Diabetes Mellitus Type II” (Pharmaceuticals, 2025).
Read-outs that look alike come from different tables or passages of the source.

Assays:
DPP4 [1] = molecular target: T1, DPP4 (Homo sapiens, UniProt P27487); assay: In vitro DPP4 inhibition assay, fluorometric, H-Gly-Pro-amidomethyl coumarin substrate; conditions: for logIC50: Figure 4, competitive inhibitors
T1 sequence (P27487 whole entry): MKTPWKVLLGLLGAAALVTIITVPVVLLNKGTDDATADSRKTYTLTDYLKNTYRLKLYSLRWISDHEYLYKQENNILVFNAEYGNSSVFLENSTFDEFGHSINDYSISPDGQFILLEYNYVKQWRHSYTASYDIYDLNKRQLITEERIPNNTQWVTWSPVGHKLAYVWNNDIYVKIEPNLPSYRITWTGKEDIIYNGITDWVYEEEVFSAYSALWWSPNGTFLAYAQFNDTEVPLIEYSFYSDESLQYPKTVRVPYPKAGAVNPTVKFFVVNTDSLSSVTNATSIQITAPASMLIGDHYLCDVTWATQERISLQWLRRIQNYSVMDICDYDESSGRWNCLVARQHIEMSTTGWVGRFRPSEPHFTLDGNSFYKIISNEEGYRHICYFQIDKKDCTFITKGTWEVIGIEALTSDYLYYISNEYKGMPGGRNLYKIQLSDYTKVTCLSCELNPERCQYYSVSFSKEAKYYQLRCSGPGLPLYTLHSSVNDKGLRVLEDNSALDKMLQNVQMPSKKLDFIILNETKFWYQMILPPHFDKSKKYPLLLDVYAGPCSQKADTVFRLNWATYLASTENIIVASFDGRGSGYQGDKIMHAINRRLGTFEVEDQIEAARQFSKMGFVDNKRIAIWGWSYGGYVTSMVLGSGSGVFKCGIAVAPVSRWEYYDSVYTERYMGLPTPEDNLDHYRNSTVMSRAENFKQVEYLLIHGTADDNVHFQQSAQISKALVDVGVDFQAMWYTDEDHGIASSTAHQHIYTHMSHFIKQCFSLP
Protocol: The compounds were screened for their inhibitory activity against DPP4 by a fluorometric assay, measuring the hydrolysis rate of the substrate Gly-Pro-amidomethyl coumarin in the absence and presence of the inhibitor. […] DPP-4 activity was assessed by measuring the hydrolysis rate of the substrate H-Gly-Pro-amidomethyl coumarin. The resulting fluorescent product, 7-Amino-4-Methyl Coumarin (AMC), was monitored with a Tecan Pro2000 microplate fluorescence reader (Tecan Ltd, Zurich, Switzerland) at an excitation wavelength of 360 nm and an emission wavelength of 460 nm, with measurements taken every 60 s for 30 min. The inhibitors, dissolved in DMSO, were added to the reaction buffer (20 mM Tris-HCl, pH 8, 100 mM NaCl, and 1 mM EDTA) at 10 µL per reaction, along with 0.17 µg/mL of enzyme, and incubated for 10 min. After incubation, 50 µL of the appropriate substrate concentration was added, bringing the total reaction volume to 100 µL. The inhibition (%) was calculated as ((Fc − Fi)/Fc) × 100, where Fc is the fluorescence value of the control (no inhibitor-total activity) and Fi is the fluorescence value in the presence of the inhibitor. […] The volume of 10 μL DMSO was added to the total activity control instead of the inhibitor. A blank containing all other components except for the enzyme was abstracted in all cases. Each determination was performed in triplicate.

DPP4 [2] = molecular target: T1, DPP4; assay: Inhibition kinetic analysis of DPP4 (Lineweaver–Burk plot); type: biochemical; conditions: for Κm of the enzyme in the presence of the compound: without compound 49.7 ± 3.8; for Inhibition Mode: from Lineweaver–Burk plot, substrate 17–80 μM
Protocol: To further investigate the mode of inhibition, Lineweaver–Burk curves were prepared for some of the compounds.
The concentration range of the substrate (H-Gly-Pro-AMC) was 17–80 μM, and the final concentration of DPP-4 was 0.17 µg/mL. The maximum enzymatic reaction rate (Vmax) and Michaelis constant (Km) were calculated according to the Lineweaver–Burk plot.

[3] = cited from earlier work
[4] = read-out: % Inhibition, 50 μΜ Substrate
[5] = read-out: % Inhibition, 100 μΜ Substrate
[6] = compound concentration 0.100 μΜ
[7] = compound concentration 15.000 μΜ
[8] = compound concentration 0.080 μΜ

Row | IC50 (DPP4 [1]; IC50, DPP4, triplicate) | inhibition at 0.08 µM (DPP4 [1]; [4]) | inhibition at 0.08 µM (DPP4 [1]; [5]) | Inhibition Mode (DPP4 [2]) | Compound | other results
1 | > 20000 nM | – | – | – | O=C1CSC(c2ccc(F)cc2)N1c1nc2ccc(Cl)cc2s1 (stereo not shown) [c1] | inhibition at 10 µM (DPP4 [1]; [4]): 33.5%; inhibition at 10 µM (DPP4 [1]; [5]): 11.4%
2 | 137 ± 4.6 nM | 36.8% | 37.2% | non-competitive | Cc1cc(C23CC4CC(CC(C4)C2)C3)cc2sc(N3C(=O)CSC3c3c(Cl)cccc3Cl)nc12 (stereo not shown) [n1, 3-(4-CH3,6-Ad-benzo[d]thiazol-2-yl)-2-(2,6-di-Cl-phenyl) thiazolidin-4-one] | Κm of the enzyme in the presence of the compound (DPP4 [2]; [6]): 49.8 ± 0.6
3 | 23.7 ± 2 nM | 45% | 14% | – | O=C1CSC(c2ccc(Cl)cc2Cl)N1c1nc2ccc(OC(F)(F)F)cc2s1 (stereo not shown) [h5] | –
4 | – | – | – | – | CC#CCn1c(N2CCC[C@@H](N)C2)nc2c1c(=O)n(Cc1nc(C)c3ccccc3n1)c(=O)n2C [linagliptin] | excreted unmodified in the feces [3]: 87%
5 | 12 ± 0.5 nM | 62% | 20% | competitive | O=C1CSC(c2c(F)cccc2Cl)N1c1nc2ccc(OC(F)(F)F)cc2s1 (stereo not shown) [h3, 3-(6-OCF3-benzo[d]thiazol-2-yl)-2-(2-F,6-Cl-phenyl) thiazolidin-4-one] | logIC50 (DPP4 [1]): 1.079; Κm of the enzyme in the presence of the compound (DPP4 [2]; compound concentration 0.010 μΜ): 103.1 ± 9.3
6 | 11500 ± 1500 nM | – | – | uncompetitive | COc1ccc(C2SCC(=O)N2c2nc3ccc(Cl)cc3s2)cc1 (stereo not shown) [c4] | inhibition at 10 µM (DPP4 [1]; [4]): 48.5%; inhibition at 10 µM (DPP4 [1]; [5]): 68.5%; Κm of the enzyme in the presence of the compound (DPP4 [2]; [7]): 19.4 ± 9.3
7 | 72.3 ± 5.2 nM | 52.3% | 37.6% | mixed | COc1ccc(C2SCC(=O)N2c2nc3ccc(OC(F)(F)F)cc3s2)cc1 (stereo not shown) [h9] | –
8 | > 100 nM | 46.8% | 0% | – | O=C1CSC(c2ccc(F)cc2)N1c1nc2ccc(OC(F)(F)F)cc2s1 (stereo not shown) [h6] | –
9 | – | – | – | – | N[C@@H](CC(=O)N1CCn2c(nnc2C(F)(F)F)C1)Cc1cc(F)c(F)cc1F [sitagliptin] | ends unmodified in the urine [3]: 79%
10 | 90.6 ± 8.8 nM | 45% | 26% | mixed | O=C1CSC(c2ccc(Cl)cc2)N1c1nc2ccc(OC(F)(F)F)cc2s1 (stereo not shown) [h8] | Κm of the enzyme in the presence of the compound (DPP4 [2]; [8]): 167.9 ± 15.8
11 | 12500 ± 200 nM | – | – | – | O=C1CSC(c2ccc(Cl)cc2)N1c1nc2ccc(Cl)cc2s1 (stereo not shown) [c3] | logIC50 (DPP4 [1]): 4.097; inhibition at 10 µM (DPP4 [1]; [4]): 41.6%; inhibition at 10 µM (DPP4 [1]; [5]): 28%
12 | 71.5 ± 8.3 nM | 52% | 69.7% | uncompetitive | O=C1CSC(c2c(F)cccc2Cl)N1c1nc2ccc(C34CC5CC(CC(C5)C3)C4)cc2s1 (stereo not shown) [m2, 3-(6-Ad-benzo[d]thiazol-2-yl)-2-(2-F,6-Cl-phenyl) thiazolidin-4-one] | Κm of the enzyme in the presence of the compound (DPP4 [2]; compound concentration 0.060 μΜ): 30.6 ± 2.7
13 | 31 ± 3.8 nM | 79.8% | 12% | – | O=C1CSC(c2c(Cl)cccc2Cl)N1c1nc2ccc(OC(F)(F)F)cc2s1 (stereo not shown) [h1] | logIC50 (DPP4 [1]): 1.491
14 | 27 ± 0.5 nM | 84.4% | 12.1% | competitive | O=C1CSC(c2cccc(Cl)c2Cl)N1c1nc2ccc(OC(F)(F)F)cc2s1 (stereo not shown) [h4] | logIC50 (DPP4 [1]): 1.431; Κm of the enzyme in the presence of the compound (DPP4 [2]; [8]): 98 ± 26.9
15 | 48.3 ± 5.2 nM | 66.3% | 0% | competitive | Cc1cc(C23CC4CC(CC(C4)C2)C3)cc2sc(N3C(=O)CSC3c3c(F)cccc3F)nc12 (stereo not shown) [n2] | logIC50 (DPP4 [1]): 1.681; IC50 (DPP4 [1]; IC50 (as printed in Figure 4), printed in the picture of Figure 4 without unit): 48 nM; Κm of the enzyme in the presence of the compound (DPP4 [2]; [6]): 117.2 ± 1.5
16 | 25.5 ± 3 nM | 67% | 55% | – | O=C1CSC(c2ccc([N+](=O)[O-])cc2)N1c1nc2ccc(OC(F)(F)F)cc2s1 (stereo not shown) [h7] | –
17 | 8600 ± 200 nM | – | – | competitive | O=C1CSC(c2ccc([N+](=O)[O-])cc2)N1c1nc2ccc(Cl)cc2s1 (stereo not shown) [c2] | inhibition at 10 µM (DPP4 [1]; [4]): 66%; inhibition at 10 µM (DPP4 [1]; [5]): 14.1%; Κm of the enzyme in the presence of the compound (DPP4 [2]; [7]): 87.6 ± 4.8
18 | > 100 nM | 38% | 0% | – | O=C1CSC(c2ccc(O)cc2)N1c1nc2ccc(OC(F)(F)F)cc2s1 (stereo not shown) [h10] | –
